In the assay the target is S-BG (Novozymes SP188 from Sigma), commercial beta-glucosidase. Description: BG kinetics, cellobiose hydrolysis assay (HPLC) with glucose as competitive inhibitor, S-BG. The assay is classed as biochemical. Conditions: pH 4.8, 50° C. From the text: The kinetic properties of beta glucosidase are important for cellulosic hydrolysis, since in commercial situations a wide range of substrate concentrations and different product inhibition conditions will be encountered. In this example, a Michaelis-Menten kinetics model was used to describe BG kinetics. To determine these kinetic properties, BG activity assays using standard substrates pNPG and cellobiose were employed. yEdQ745-BG (wild type) and yEdQ885-BG (improved), were compared with two commercial BGs, A-BG (Accellerase®) BG from Dupont) and S-BG (Novozymes SP188 from Sigma).
BG activity assay using cellobiose is the other standard assay to measure BG or cellobiase activity, which utilizes hydrolysis of cellobiose by cellobiase into two molecules of glucose, the last step of enzymatic hydrolysis of cellulose. One cellobiase unit (commonly termed as CBU) is defined as the amount of enzyme that converts […] of cellobiose or produces 2 μmol of glucose per min. Briefly, to determine BG activity, 25 μL of diluted enzyme in 50 mM citrate buffer (pH 4.8) equilibrated to 50° C. was mixed with 25 μL cellobiose (or cellobiose/glucose mixture for the kinetic study) to start the reaction. The mixture was incubated at 50° C. for 10 min, and the reaction was terminated by incubating the mixture at 99° C. for 5 min. Different methods are available to measure the glucose produced in the assays. For the kinetic study, HPLC was used.
To determine kinetic properties using cellobiose substrate, duplicate assays with cellobiose concentrations ranging from 0.47 to 15 mM and glucose concentrations of 0, 0.9, 4.5, 6.75, and 8.1 (for A-BG) or 9 (for all the other three BGs) g/L were performed. As for pNPG substrate, the range of cellobiose substrate concentration was chosen to show detectable activity at the lowest substrate concentration and saturation stage at high substrate concentration. However, in contrast to the pNPG substrate, when there was still some activity left at glucose concentration up to 36 g/L, most of the BG activity was lost at an inhibitor level of 9 g/L when cellobiose substrate was used. […] It should also be noted that colorimetric glucose assay cannot provide activity results for inhibitory glucose levels above 0.9 g/L after several trials. Therefore, HPLC measurements were used for kinetic studies using cellobiose substrate. It should be pointed out that the HPLC method may not be sensitive enough either to capture BG activity under more severe glucose inhibition conditions than 9 g/L of glucose. Moreover, theoretically there are two ways to measure BG activity by HPLC when cellobiose is used as the substrate: tracking consumption of cellobiose or tracking production of glucose. However, as shown by the example of one set of results from S-BG in Table 3, tracking glucose is problematic due to measurement sensitivity. In Table 3, A % is defined as follows and is an indicator of measurement sensitivity, since the difference of substrate or product concentrations before and after reaction was used to determine BG activity. Δ%=(start conc. of cellobiose−end conc. of cellobiose)/start conc. of cellobiose×100% (3) Δ%=(end conc. of glucose−start conc. of glucose)/start conc. of glucose×100% (4)
With increasing inhibitor (glucose) level, Δ% is decreasing. For the case of tracking glucose, Δ% was too small to be reliable when 4.5 g/L of glucose was added at the beginning. […] Thus, the approach of tracking cellobiose was chosen due to its higher detection sensitivity. In the substrate range used to determine kinetic parameters (0.47 to 30 mM for A-BG and 0.47 to 15 mM for the other three BGs), the detection sensitivity is reasonable.
A similar simultaneous nonlinear regression method based on the competitive inhibition equation expressed in Equation (1) was used to determine kinetic parameters of BG towards cellobiose. […]

As usually defined, the Ki is the equilibrium dissociation constant of an inhibitor or competing ligand from its target. Turning to `OC[C@H]1OC(O)[C@H](O)[C@@H](O)[C@@H]1O` (some centres unmarked) [glucose], for the setting “cellobiose substrate, competitive inhibition”, the inhibition constant Ki worked out at 3.13 ± 0.76 mM. In addition, under “inhibitor influence, Km for cellobiose / Ki for glucose”, the Km/Ki amounted to 0.51.

The record behind these values is US10077436B2, “Beta-glucosidase enzymes for increased biomass saccharification” (Edeniq, Inc., priority 2013, dated 2018).
